# Laboratory results from patent US12336995B2, “Combination therapies” (Mirati Therapeutics, Inc., priority 2018, dated 2025).
# Like-named read-outs stand apart in the source and are kept apart here.
# Legend:
# [1] = tested on: CR6258 Tumor; assay: In vivo PDX model, Compound 478 and Cetuximab (Table 5a); design: species or system nude/nude mice; conditions: for Average Tumor Volumes: CR6258, Cetuximab 0.25 mg/kg i.p. every third day, single or combined
# Experimental: (§1) Immunocompromised nude/nude mice were inoculated in the right hind flank with cells or patient derived tumor samples harboring a KRas G12C mutation. […] The first group was administered vehicle only. […] The fourth group was administered the single agent dose of the KRas G12C inhibitor in combination with the single agent dose of the pan ErbB family inhibitor. […] Tumor volumes were measured using a caliper every two-three days and tumor volumes were calculated by the formula: 0.5×(Length×Width)^2.
# (§2) In a related experiment, on Day 1, two sets of 20 nude/nude mice each were inoculated in the right hind limb with 5×10^6 CR6256 cells or CR2528 cells (PDX models). […] Tumor volumes were measured at pre-specified days set forth below.
# [2] = tested on: CR2528 cells (PDX models); assay: In vivo PDX model, Compound 478 and Cetuximab (Table 5b); design: species or system nude/nude mice; conditions: for Average Tumor Volumes: CR2528, Cetuximab 0.25 mg/kg i.p. every third day, single or combined
# Experimental: as §1, §2
# [3] = tested on: LU6405 cells (PDX model); assay: In vivo PDX model, Compound 478 and Afatinib (Table 4c); conditions: for Average Tumor Volumes: LU6405, Afatinib 12.5 mg/kg, single or combined
# Experimental: as §1
# (§3) Tumor volumes were measured at pre-specified days set forth below.
# [4] = tested on: KYSE-410 cells; assay: In vivo tumor model, Compound 478 and Afatinib (Table 4b); conditions: for Average Tumor Volumes: KYSE-410, Afatinib 12.5 mg/kg, single or combined
# Experimental: as §1, §3
# [5] = tested on: H2122 cells; conditions: H2122-implanted mice; Day 46 (Treatment Day 35); single agent 100 mg/kg p.o. daily; Table 6b
# Experimental: as §1, §3
# [6] = tested on: H2122 cells; assay: In vivo tumor model, Compound 478 and Afatinib (Table 4a); conditions: for Average Tumor Volumes: H2122, Afatinib 12.5 mg/kg, single or combined
# Experimental: as §1, §3
# [7] = tested on: KYSE-410 cells; conditions: KYSE-410-implanted mice; Day 61 (Treatment Day 50); single agent 100 mg/kg p.o. daily; Table 6a
# Experimental: as §1, §3
# [8] = Day 11 post implant (treatment start), Compound 478 100 mg/kg p.o. daily
# [9] = Day 11 post implant (treatment start), p.o. daily: Compound 478 100 mg/kg
# [10] = Day 14 post implant, p.o. daily from Day 11: Compound 478 100 mg/kg
# [11] = Day 18 post implant, p.o. daily from Day 11: Compound 478 100 mg/kg
# [12] = Day 21 post implant, p.o. daily from Day 11: Compound 478 100 mg/kg
# [13] = Day 25 post implant, p.o. daily from Day 11: Compound 478 100 mg/kg
# [14] = Day 28 post implant, p.o. daily from Day 11: Compound 478 100 mg/kg
# [15] = Day 32 post implant, p.o. daily from Day 11: Compound 478 100 mg/kg
# [16] = Day 34 post implant, p.o. daily from Day 11: Compound 478 100 mg/kg
smiles,measurement,setting,value
C=C(F)C(=O)N1CCN(c2nc(OC[C@@H]3CCCN3C)nc3c2CCN(c2cccc4cccc(Cl)c24)C3)C[C@@H]1CC#N [Compound 478],tumor regression,"[1]; CR6258-implanted mice, Day 37 (Treatment Day 27), Compound 478 100 mg/kg p.o. daily alone or with cetuximab 0.25 mg/kg i.p. every three days",71%
same,Average Tumor Volumes,[1]; [8],190.54 mm^3
same,Average Tumor Volumes,"[1]; Day 18 post implant, from Day 11: Compound 478 100 mg/kg p.o. daily",256.91 mm^3
same,Average Tumor Volumes,"[1]; Day 25 post implant, from Day 11: Compound 478 100 mg/kg p.o. daily",201.00 mm^3
same,Average Tumor Volumes,"[1]; Day 28 post implant, from Day 11: Compound 478 100 mg/kg p.o. daily",128.77 mm^3
same,Average Tumor Volumes,"[1]; Day 32 post implant, from Day 11: Compound 478 100 mg/kg p.o. daily",77.44 mm^3
same,Average Tumor Volumes,"[1]; Day 35 post implant, from Day 11: Compound 478 100 mg/kg p.o. daily",56.15 mm^3
same,Average Tumor Volumes,"[1]; Day 39 post implant, from Day 11: Compound 478 100 mg/kg p.o. daily",44.24 mm^3
same,Average Tumor Volumes,"[1]; Day 42 post implant, from Day 11: Compound 478 100 mg/kg p.o. daily",41.80 mm^3
same,Average Tumor Volumes,"[1]; Day 46 post implant, from Day 11: Compound 478 100 mg/kg p.o. daily",29.92 mm^3
same,Average Tumor Volumes,"[1]; Day 49 post implant, from Day 11: Compound 478 100 mg/kg p.o. daily",19.79 mm^3
same,single-agent anti-tumor activity,"[2]; CR2528-implanted mice, Day 34 (Treatment Day 24), 100 mg/kg p.o. daily",no single-agent anti-tumor activity
same,Average Tumor Volumes,[2]; [8],265.11 mm^3
same,Average Tumor Volumes,"[2]; Day 14 post implant, from Day 11: Compound 478 100 mg/kg p.o. daily",350.48 mm^3
same,Average Tumor Volumes,"[2]; Day 17 post implant, from Day 11: Compound 478 100 mg/kg p.o. daily",434.64 mm^3
same,Average Tumor Volumes,"[2]; Day 20 post implant, from Day 11: Compound 478 100 mg/kg p.o. daily",656.73 mm^3
same,Average Tumor Volumes,"[2]; Day 24 post implant, from Day 11: Compound 478 100 mg/kg p.o. daily",950.91 mm^3
same,Average Tumor Volumes,"[2]; Day 27 post implant, from Day 11: Compound 478 100 mg/kg p.o. daily",1252.80 mm^3
same,Average Tumor Volumes,"[2]; Day 31 post implant, from Day 11: Compound 478 100 mg/kg p.o. daily",1713.13 mm^3
same,Average Tumor Volumes,"[2]; Day 34 post implant, from Day 11: Compound 478 100 mg/kg p.o. daily",2757.63 mm^3
same,Average Tumor Volumes,[3]; [9],256.06 mm^3
same,Average Tumor Volumes,[3]; [10],308.98 mm^3
same,Average Tumor Volumes,[3]; [11],324.46 mm^3
same,Average Tumor Volumes,[3]; [12],329.09 mm^3
same,Average Tumor Volumes,[3]; [13],310.21 mm^3
same,Average Tumor Volumes,[3]; [14],290.88 mm^3
same,Average Tumor Volumes,[3]; [15],257.34 mm^3
same,Average Tumor Volumes,[3]; [16],249.19 mm^3
same,tumor growth inhibition,"[3]; LU6405-implanted mice, Day 34 (Treatment Day 24), single agent 100 mg/kg p.o. daily",96%
same,Average Tumor Volumes,[4]; [9],307.30 mm^3
same,Average Tumor Volumes,[4]; [10],274.64 mm^3
same,Average Tumor Volumes,"[4]; Day 16 post implant, p.o. daily from Day 11: Compound 478 100 mg/kg",311.34 mm^3
same,Average Tumor Volumes,[4]; [11],297.62 mm^3
same,Average Tumor Volumes,[4]; [12],338.18 mm^3
same,Average Tumor Volumes,"[4]; Day 23 post implant, p.o. daily from Day 11: Compound 478 100 mg/kg",320.42 mm^3
same,Average Tumor Volumes,[4]; [13],358.68 mm^3
same,Average Tumor Volumes,[4]; [14],459.20 mm^3
same,Average Tumor Volumes,"[4]; Day 30 post implant, p.o. daily from Day 11: Compound 478 100 mg/kg",441.60 mm^3
same,Average Tumor Volumes,[4]; [15],480.62 mm^3
same,Average Tumor Volumes,"[4]; Day 37 post implant, p.o. daily from Day 11: Compound 478 100 mg/kg",525.86 mm^3
same,tumor growth inhibition,"[4]; KYSE-410 tumor bearing mice, Day 37 (Treatment Day 27), single agent 100 mg/kg p.o. daily",64%
same,tumor regression,[5],3%
same,Average Tumor Volumes,[6]; [9],325.05 mm^3
same,Average Tumor Volumes,"[6]; Day 13 post implant, p.o. daily from Day 11: Compound 478 100 mg/kg",339.80 mm^3
same,Average Tumor Volumes,"[6]; Day 15 post implant, p.o. daily from Day 11: Compound 478 100 mg/kg",337.58 mm^3
same,Average Tumor Volumes,[6]; [11],381.78 mm^3
same,Average Tumor Volumes,"[6]; Day 20 post implant, p.o. daily from Day 11: Compound 478 100 mg/kg",462.40 mm^3
same,Average Tumor Volumes,"[6]; Day 22 post implant, p.o. daily from Day 11: Compound 478 100 mg/kg",479.48 mm^3
same,Average Tumor Volumes,[6]; [13],492.76 mm^3
same,Average Tumor Volumes,"[6]; Day 27 post implant, p.o. daily from Day 11: Compound 478 100 mg/kg",541.06 mm^3
same,Average Tumor Volumes,"[6]; Day 29 post implant, p.o. daily from Day 11: Compound 478 100 mg/kg",537.14 mm^3
same,Average Tumor Volumes,[6]; [15],547.06 mm^3
same,Average Tumor Volumes,[6]; [16],546.96 mm^3
same,tumor growth inhibition,"[6]; H2122 tumor bearing mice, Day 22 (Treatment Day 10), single agent, Compound 478 100 mg/kg, afatinib 12.5 mg/kg p.o. daily",85%
same,tumor growth inhibition,[7],71%
